Source: US11957669B2, “Pharmaceutical composition containing (R)-N-[1-(3,5-difluoro-4-methansulfonylamino-phenyl)-ethyl]-3-(2-propyl-6-trifluoromethyl-pyridin-3-yl)-acrylamide” (AMOREPACIFIC CORPORATION, priority 2017, dated 2024)

Legend:
[1] = Solubility of the compound of Formula (1) in various solvents (excess compound, shaking, HPLC); format: physicochemical; settings: for solubility at 24 h: thermodynamic from solid
Method: An excess amount of the compound of Formula (1) was added to 1 mL of each solvent described in Table 1 below and stirred for 24 hours at 25° C. while shaking at 200 rpm (Shaking incubator, SI 600R, JEIO TECH, Korea). Thereafter, a centrifugation was performed at 10,000 rpm for 10 minutes, and the supernatant was filtered using a membrane filter (0.2 μm), then diluted moderately with methanol and analyzed by HPLC.

[2] = as above; format: physicochemical

solubility at 24 h ([1]; 25 °C, organic solvent or mixture, in dimethyl sulfoxide, diethylene glycol monoethyl ether, 2-pyrrolidone and polyethylene glycol (summary of Table 1)): ≥ 100 mg/mL | solubility at 24 h ([1]; oil or lipid, in Cocoyl caprylocaprate, 25° C., 24 hours): 0.46 mg/mL | solubility at 24 h ([1]; oil or lipid, in Corn oil, 25° C., 24 hours): 1.8 mg/mL | solubility at 24 h ([1]; oil or lipid, in Ethyl oleate, 25° C., 24 hours): 1 mg/mL | solubility at 24 h ([1]; oil or lipid, in Isopropyl myristate, 25° C., 24 hours): 1.18 mg/mL | solubility at 24 h ([1]; oil or lipid, in Miglyol, 25° C., 24 hours): 1.4 mg/mL | solubility at 24 h ([1]; oil or lipid, in Octyldodecanol, 25° C., 24 hours): 1.77 mg/mL | solubility at 24 h ([1]; oil or lipid, in Oleic acid, 25° C., 24 hours): 0.43 mg/mL | solubility at 24 h ([1]; oil or lipid, in Oleyl Alcohol, 25° C., 24 hours): 6.32 mg/mL | solubility at 24 h ([1]; oil or lipid, in Propylene glycol monocaprylate, 25° C., 24 hours): 75 mg/mL | solubility at 24 h ([1]; oil or lipid, in Propylene glycol monolaurate, 25° C., 24 hours): 7.75 mg/mL | solubility at 24 h ([1]; oil or lipid, in Triglycerides, Medium chain, 25° C., 24 hours): 1.9 mg/mL | solubility at 24 h ([1]; organic solvent or mixture, in 2-Pyrrolidinone, 25° C., 24 hours): 212 mg/mL | solubility at 24 h ([1]; organic solvent or mixture, in Acetonitrile, 25° C., 24 hours): 108 mg/mL | solubility at 24 h ([1]; organic solvent or mixture, in Caprylocaproyl polyoxyl-8 glycerides, 25° C., 24 hours): 46.7 mg/mL | solubility at 24 h ([1]; organic solvent or mixture, in Diethylene glycol monoethyl ether, 25° C., 24 hours): 289 mg/mL | solubility at 24 h ([1]; organic solvent or mixture, in Dimethyl sulfoxide, 25° C., 24 hours): 632 mg/mL | solubility at 24 h ([1]; organic solvent or mixture, in Dimethylacetamide, 25° C., 24 hours): 80 mg/mL | solubility at 24 h ([1]; organic solvent or mixture, in Ethanol, 25° C., 24 hours): 75.3 mg/mL | solubility at 24 h ([1]; organic solvent or mixture, in Glycerol, 25° C., 24 hours): 0.84 mg/mL | solubility at 24 h ([1]; organic solvent or mixture, in Lauroyl macrogol-32 glycerides, 25° C., 24 hours): 24.1 mg/mL | solubility at 24 h ([1]; organic solvent or mixture, in Methanol, 25° C., 24 hours): 178 mg/mL | solubility at 24 h ([1]; organic solvent or mixture, in Oleoyl polyoxyl-6 glycerides, 25° C., 24 hours): 4.36 mg/mL | solubility at 24 h ([1]; organic solvent or mixture, in Poloxamer 124, 25° C., 24 hours): 66.7 mg/mL | solubility at 24 h ([1]; organic solvent or mixture, in Polyethylene glycol(PEG) 300, 25° C., 24 hours): 146 mg/mL | solubility at 24 h ([1]; organic solvent or mixture, in Polyethylene glycol(PEG) 400, 25° C., 24 hours): 168 mg/mL | solubility at 24 h ([1]; organic solvent or mixture, in Polyethylene glycol-35 castor oil, 25° C., 24 hours): 2.7 mg/mL | solubility at 24 h ([1]; organic solvent or mixture, in Polyoxyl 40 hydrogenated castor oil, 25° C., 24 hours): 36 mg/mL | solubility at 24 h ([1]; organic solvent or mixture, in Polysorbate 20, 25° C., 24 hours): 48 mg/mL | solubility at 24 h ([1]; organic solvent or mixture, in Polysorbate 40, 25° C., 24 hours): 37 mg/mL | solubility at 24 h ([1]; organic solvent or mixture, in Polysorbate 60, 25° C., 24 hours): 35 mg/mL | solubility at 24 h ([1]; organic solvent or mixture, in Polysorbate 80, 25° C., 24 hours): 11.8 mg/mL | solubility at 24 h ([1]; organic solvent or mixture, in Propylene glycol, 25° C., 24 hours): 25 mg/mL | solubility at 24 h ([1]; organic solvent or mixture, in Triacetin, 25° C., 24 hours): 56.5 mg/mL | solubility at 24 h ([1]; in Purified water, 25° C., 24 hours): 0.05 mg/mL | solubility ([1]; water, background statement): < 0.1 mg/mL | solubility ([2]; aqueous with cosolvent or surfactant or cyclodextrin, in a 10% (w/w) aqueous solution of PEG 400): ~0.08 mg/mL | solubility in oil ([2]; oil, background statement): significantly low solubility in oil
Compound: CCCc1nc(C(F)(F)F)ccc1/C=C/C(=O)N[C@H](C)c1cc(F)c(NS(C)(=O)=O)c(F)c1 [compound of Formula (1), (R)—N-[1-(3,5-difluoro-4-methanesulfonylamino-phenyl)-ethyl]-3-(2-propyl-6-trifluoromethyl-pyridin-3-yl)-acrylamide]
